Assay results as given in publication PMC7136958, “Targeting the pregnane X receptor using microbial metabolite mimicry” (EMBO Molecular Medicine, 2020).
Where “and” joins values, the source holds several entries; their conditions need not be identical. Equal entries are not always repeated.

Experiments:
PKAC-alpha = PKAC-alpha (Homo sapiens, UniProt P17612); assay: KINOMEscan select kinase screen; format: binding; conditions: two experiments
Procedure: (§1) Kinase Assays. The kinase inhibition assays were conducted by DiscoverX on a platform assay by Ambit BioSciences as described previously 16,17. FKK6 was screened at a single concentration of 10 […]
(§2) The assays measure a compound’s ability to inhibit binding of a canonical ligand substrate, with 0% activity of control corresponding to full inhibition and 100% activity of control to no inhibition. […]

PKAC-beta = PKAC-beta (Homo sapiens, UniProt P22694); assay: KINOMEscan select kinase screen; format: binding; conditions: two experiments
Procedure: as §1, §2

IL-8 mRNA = assay: TNF-α-induced IL-8 mRNA in human colonic enteroids (Calgary Protocol); format: cell-based; conditions: 10 μM, pair-wise vs DMSO
Procedure: Samples were immediately processed to yield isolated colonic crypts as previously described (Fernando et al, 2017). Isolated colonic crypts were embedded in Matrigel® (Corning) and cultured in Intesticult^tm Organoid Growth Media. Human organoids were pretreated for 6 h with either FKK5, FKK6, FKK9, or vehicle (DMSO), then stimulated with human recombinant TNF‐alpha in the presence of either treatment for an additional 12 h. Organoids were washed in PBS, disrupted in Tri Reagent® (Sigma, Oakville, ON, CAN), and frozen at −80°C. After thawing, chloroform was added, samples were centrifuged for 15 min, and the resulting aqueous phase was then added to equal volumes of 70% ethanol and further processed using the RNeasy mini kit (Qiagen). cDNA was synthesized using the QuantiTect RT kit (Qiagen) according to the manufacturer's protocol. Resulting cDNA was used as a template for quantitative real‐time PCR using Perfecta SYBR Green FastMix with ROX (QuantaBio). PCR and analysis were performed using a StepOne PCR System (Applied Biosystems). Gene expression was calculated relative to β‐actin expression and expressed as fold change of control. The primers used were as follows: Human®‐Actin (NM_001101), Human CYP3A4 (NM_001202855), and Human ABCB1 (NM_000927).

[1] = biological target: T1, Mouse pregnane X receptor (mPXR) (Mus musculus, UniProt O54915); assay: mPXR reporter (MRP2) activity in HEK293T cells; format: cell-based
T1 construct: expressed in transfected cells; host or cells: HEK293T
T1 sequence (O54915 whole entry): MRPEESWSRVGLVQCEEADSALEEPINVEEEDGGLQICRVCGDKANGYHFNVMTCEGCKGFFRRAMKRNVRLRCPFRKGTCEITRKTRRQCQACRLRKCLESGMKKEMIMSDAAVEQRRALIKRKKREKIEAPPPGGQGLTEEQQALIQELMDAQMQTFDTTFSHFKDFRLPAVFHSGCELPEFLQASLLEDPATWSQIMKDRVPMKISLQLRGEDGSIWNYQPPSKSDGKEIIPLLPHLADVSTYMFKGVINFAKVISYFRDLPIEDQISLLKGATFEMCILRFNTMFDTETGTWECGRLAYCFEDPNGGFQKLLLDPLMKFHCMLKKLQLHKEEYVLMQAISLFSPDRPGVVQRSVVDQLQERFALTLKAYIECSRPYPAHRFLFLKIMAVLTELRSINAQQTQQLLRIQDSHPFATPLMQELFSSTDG
Procedure: Reverse transfection assays were performed in Caco‐2 cells as previously published with the following modifications (Kublbeck et al, 2015). 3.0 × 10^4 cells per well were transfected using pSG5‐PXR plasmid (300 ng/well), β‐Gal expression plasmid (600 ng/well), and CYP3A4‐luciferase reporter (500 ng/well) (Huang et al, 2007). After 24‐h transfection using Lipofectamine® LTX ([…] of plasmid), cells were exposed to FKK5 for 24 h. Cell lysates were prepared for β‐Gal and luciferase assays as previously published (Huang et al, 2007). The data are expressed as mean ± SD RLU (relative light units from luciferase assay) normalized to β‐Gal activity in the same well. Differences were tested using 2‐way ANOVA with Tukey's multiple comparison test, and P < 0.05 was considered significant (*). Standard transient transfection assays (PXR, CAR) in HEK293T cells were performed as previously published (Huang et al, 2007).

hPXR mice = assay: DSS-induced acute colitis in hPXR mice; format: in vivo, mouse
Procedure: For these studies, 7‐ to 8‐week‐old female (DeVoss & Diehl, 2014) hPXR (mice expressing the human PXR gene) and pxr ^−/− mice (C57BL/6 background) were bred and each genotype was separated into two treatment groups using a random allocation method via coin toss—(i) n = 3 control (0.8% DMSO in 100 μl drinking water) and (ii) n = 3 FKK6 (200 μM (0.4 mg/kg/day) in 0.8% DMSO in 100 μl drinking water) administered once per day via oral gavage, and via intrarectal gavage for a total of 10 consecutive days The dose was chosen based on the extrapolation of the total dose delivered over 10 days to mice (~ 4 mg/kg), which is equivalent to that delivered to mice for determining target gene expression over 3–5 doses (3–5 mg/kg). […] Fecal pellets were collected prior to the initiation of the treatment protocol. All mice were starved overnight (12 h) to allow for smooth intrarectal delivery; however, the mice were allowed to feed ad libitum during the day. After 10 days, the mice were sacrificed and organs/tissues/feces harvested for further study. Prior to necropsy, mice were administered FITC‐dextran, and mouse serum was collected for the FITC‐dextran assay as previously described (Vetizou et al, 2015). The experimenter was not blinded to treatment allocation; however, the pathologist (KS) evaluating histologic scores was blinded to treatment allocation. All studies were approved by the Institute of Animal Studies at the Albert Einstein College of Medicine, INC (IACUC # 20160706 and preceding protocols). Colitis scoring was performed as previously published, and post‐examination masking was conducted (Kim et al, 2012; Meyerholz & Beck, 2018).
For RT–qPCR of colon tissue for cytokine expression data, new experiments were conducted with 3% DSS and the identical FKK6 dose (n = 3 mice/group) and scheduled as above. RT–qPCR was performed using PowerUp™ SYBR® Green Master Mix (A25741, Thermo Fisher Scientific) and primers specific for IL‐10, TNF‐α, TNFR2, and […]. Each target gene was analyzed in quadruplicate. Normalizing controls included GAPDH (used to illustrate data) and TBP.

C57BL/6 mice = assay: 10 Day (acute) toxicity study in mice; format: in vivo, mouse
Procedure: The LS180 cell line was used to assess cell cytotoxicity using the MTT (3‐(4,5‐dimethylthiazolyl‐2)‐2,5‐diphenyltetrazolium bromide) assay as previously described (Bartonkova et al, 2015, 2016). […] FKK6 was selected as a lead compound for assessment, given that it had the more favorable PXR‐selective ligand activity in cells. […] The mice were gavaged for ten consecutive days and necropsied on day 12 with the collection of blood (serum). […] Similarly, a 30‐day toxicity test was conducted in mice using FKK6 at an oral dose of 200 μM in 0.8% DMSO per day. We chose this dose to stay within the safe DMSO dose administered to mice over 30 days. On day 30, we necropsied the mice and collected blood (serum).

[2] = FKK6 200 μM, day 10, individual mice

## O=C(c1ccncc1)c1cc2ccccc2n1S(=O)(=O)c1ccccc1 [FKK5, (1-(phenylsulfonyl)-1H-indol-2-yl)(pyridin-4-yl)methanone]
PKAC-alpha; 10000 nM, read-out: %Ctrl
  remaining binding at 10 µM: 100%
PKAC-alpha; 25000 nM, 25 µM
  %Ctrl: 95 %Ctrl
PKAC-alpha; 25000 nM, read-out: %Ctrl
  remaining binding at 25 µM: 85%
PKAC-beta; 10000 nM, 10 µM
  %Ctrl: 100 %Ctrl and 57 %Ctrl
PKAC-beta; 25000 nM, 25 µM
  %Ctrl: 92 %Ctrl and 48 %Ctrl
IL-8 mRNA
  TNF-α-induced IL-8 mRNA levels: significantly lowered

## C#CCC(O)(c1ccncc1)c1cc2ccccc2n1S(=O)(=O)c1ccccc1 (centres unmarked) [FKK6]
[1]
  mouse PXR activation: did not significantly activate
hPXR mice; 3% DSS, FKK6 vs controls
  colon tissue IL-10 mRNA: significant increase
  colon tissue TNF-α mRNA: decrease
  colon tissue TNFR2 mRNA: decrease
hPXR mice; 3% DSS, FKK6 vs vehicle
  colon tissue IL-17f mRNA: significant reduction
hPXR mice; FKK6 200 μM
  fecal lipocalin 2: only a trend in the reduction
  serum FITC-dextran: only a trend in the reduction
hPXR mice; FKK6 200 μM oral gavage plus intrarectal, once daily 10 days, individual mice
  % weight loss from baseline (day 1 vs. day 10): significantly reduced weight loss and 20% and 16%
hPXR mice; [2]
  colon length: increased colon length and 5.2 cm and 5.6 cm and 5.1 cm
  inflammation score: substantially decreased and 3 and 5
IL-8 mRNA
  TNF-α-induced IL-8 mRNA levels: did not reach statistical significance
C57BL/6 mice; 500 μM in 10% DMSO per day, gavage, ten days
  serum chemistry profiles: did not alter
C57BL/6 mice; 500 μM in 10% DMSO per day, gavage, ten days, necropsy day 12
  tissue pathology vs vehicle: did not significantly impact tissue pathology
C57BL/6 mice; 10 day, n=6
  Histopathology: Kidney: Degenerative tubules/vacuoles (rare) (n=6)
  Histopathology: Liver: Mild periportal inflammation (n=5)
  Histopathology: Lung: Mild leukocytes (n=2)
  Histopathology: Spleen: Mild lymphoid hyperplasia (n=2)
